# Assays:
# Assay type in all cases: cell-based
# [1] = system: Fibroblasts; assay: Uptake of homopolymers by fibroblasts, single cell fluorescence analysis with syto-13; conditions: fibroblasts stained with syto-13, relative intensity ± standard deviation, n = number of cells
# Experimental: (§1) Fibroblasts cells were incubated for 24 hrs with and without fetal calf serum. Cells harvested at zero time served as controls. They were subjected to all of the analyses performed on experimental cells. Cells were harvested as described in ‘section V. Methods and Materials’. Macrophages were treated the same as previously described for fibroblasts except human serum was used in place of fetal calf serum and they were not cultured without serum. Cells were incubated with predetermined amounts of nucleotides with and without peptide Incubations were stopped at zero time and 24 hrs. The media harvested at zero and 24 hrs was saved for analysis for peptides and nucleotides. Cells were washed and harvested as described previously. The wash was saved for analysis of peptides and nucleotides. Some cells were sonicated and aliquots analyzed for radioactivity by a liquid scintillation spectrometer (counter). […] Spectrophotometric analysis quantifies the amount of nucleotide retained. VI: Extraction of lipids—The non-saponifiable lipids and free fatty acids were extracted using petroleum ether (30–60° C.). Neutral lipids were extracted with petroleum ether without prior saponification. […] The latter two methods, when used, necessitate extensive chromatographic separation of mevalonate from the phospholipids and neutral lipids. […] Control experiments in which the reaction was stopped at zero time and in which the enzyme preparation is omitted show no radioactivity is extracted when the usual incubation, saponification, and isolation procedures were performed.
# (§2) a) Isolating the peptides then b) incubating the peptide sample with predetermined amounts of nucleotides with and without peptides. After this, the nucleotides are transferred into the cells. Cells were treated with homopolymers in the presence and absence of the peptides. Uptake was determined as described under Methods and Materials, above. The polynucleotides were quantified spectrophotometrically and by single cell fluorescence analysis using syto-13 (Molecular Probes).
# Fibroblasts were cultured as described under V.Methods and Materials. Cells were stained with syto-13 (Molecular Probes). Single cell fluorescence analysis was performed using a Zeiss microsope photometer. Values are relative intensity ±standard deviation. N=number of cells.
# [2] = system: human fibroblasts; assay: Uptake of polynucleotides in the presence and absence of peptides by human fibroblasts, spectrophotometric; parameters: Absorbance, Peptides / Absorbance, Without Peptides: dose or concentration left out as unconfirmed; conditions: 24 hrs minus zero time values; for μ grams, Peptides / Absorbance, Peptides: with peptides; for Absorbance, Peptides / Absorbance, Without Peptides: absorbance at 260 nm, ± standard deviation
# Experimental: 1. Analysis of control cells stopped at zero time gives the original content of nucleotides of interest.
# 2. Analysis of control cells stopped after 24 hour incubation gives the change in nucleotide content during the 24 hr period. That is, 24 hr content of control cells minus zero time control cells nucleotide content equals net change.
# 3. Analysis of nucleotide treated cells at zero time incubation gives the initial content and/or bound nucleotides.
# 4. Analysis of nucleotide treated cells at 24 hour time gives the amount present after 24 hours.
# 5. 24 hour content minus zero time content gives the net change in nucleotide content.
# 6. The net content of the 24 hr nucleotide treated cells minus the zero time content of nucleotides gives the amount transported by the peptides.
# 7. The net values are previously corrected for the amount in the original media and wash for the treated cells.
# as §1, §2
# The cells were cultured as described under Methods, above. The experiments were stopped at zero time and 24 hours. Values are obtained by subtracting initial zero time values from those of 24 hrs. Values are ±standard deviation. Absorbance measured spectrophotometrically at […].
# [3] = system: cells; assay: Determination of cellular loci of administered polynucleotides by differential centrifugation; parameters: Absorbance, Nuclear Fraction / Absorbance, Microsomal Fraction: dose or concentration left out as unconfirmed; conditions: for μ grams, Nuclear Fraction / μ grams, Microsomal Fraction: calculated after subtracting zero time control values from experimental values; for Absorbance, Nuclear Fraction / Absorbance, Microsomal Fraction: observed values, absorbance at 260 nm
# Experimental: as §1
# Cells were cultured and treated as described under Methods, above. Cells were subjected to differential centrifugation. μ grams calculated after correction of values by subtracting zero time control values from experimental values. No significant absorbances of nucleotides were detected in the experimental samples in the mitochondrial-lysosomal fraction when zero time control values were subtracted from the experimental values. Absorbance was measured spectrophotometrically at […]. […] In a preferred embodiment of this invention, the target cells are smooth muscle cells and macrophages which are found in atheromatous plaques. The plaques are a focal thickening of the intima caused by proliferation of smooth muscle cells.
Substance,"Fluorescence Relative Intensity, Control [1]","Fluorescence Relative Intensity, Experimental [1]","μ grams, Peptides [2] [μ grams]","Absorbance, Peptides [2]","μ grams, Without Peptides [2] [μ grams]","Absorbance, Without Peptides [2]","μ grams, Nuclear Fraction [3] [μ grams]","Absorbance, Nuclear Fraction [3]","μ grams, Microsomal Fraction [3] [μ grams]","Absorbance, Microsomal Fraction [3]"
Polyguanylic acid,13.1 ± 3.1 (n = 24),39.2 ± 9.5 (n = 17),1160,0.444 ± 0.058,580,0.223 ± 0.084,747.7,0.354 ± 0.030,,
Polyadenylic acid,11.7 ± 3.8 (n = 22),27.4 ± 7.5 (n = 23),252,0.200 ± 0.101,59,0.047 ± 0.025,59.1,0.265 ± 0.061,155,0.242 ± 0.038
Polycytidylic acid,3.3 ± 0.6 (n = 14),14.9 ± 1.6 (n = 14),380,0.209 ± 0.028,94,0.052 ± 0.031,107.4,0.254 ± 0.026,153,0.236 ± 0.025
Polyuridylic acid,4.4 ± 1.3 (n = 22),16.8 ± 4.6 (n = 23),436,0.370 ± 0.07,82,0.071 ± 0.013,246.1,0.326 ± 0.050,186,0.313 ± 0.030

# From patent US7109173B1, “Transport of nucleotides, oligonucleotides and polynucleotides into the cytoplasm and nucleus of cells by peptides” (priority 2004, dated 2006)
